In US9434711B2 (Janssen Pharmaceutica, NV, priority 2007, dated 2016):
pIC50: −log10 of the molar value.

Molecular target: canine TRPM8 (Canis lupus familiaris, UniProt Q1A7N1)
Experiment: In Vitro Canine TRPM8 Functional Assay (Ca2+ fluorescence, icilin activation)
Assay type: cell-based
Conditions: for inhibition at 0.2 µM: read-out: % Inh @ 0.2; for pIC50: HEK293 cells stably expressing canine TRPM8, icilin activation, eight-point dose-response, read-out: IC50
Outline: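 Canine TRPM8 stably expressed in HEK293; compound added 5 min before icilin challenge (~80% max response), with fluorescent Ca2+ signal tracked throughout.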

[1] = compound at 0.2 μM, canine TRPM8, icilin activation

canine TRPM8, sequence (Q1A7N1 1-1104): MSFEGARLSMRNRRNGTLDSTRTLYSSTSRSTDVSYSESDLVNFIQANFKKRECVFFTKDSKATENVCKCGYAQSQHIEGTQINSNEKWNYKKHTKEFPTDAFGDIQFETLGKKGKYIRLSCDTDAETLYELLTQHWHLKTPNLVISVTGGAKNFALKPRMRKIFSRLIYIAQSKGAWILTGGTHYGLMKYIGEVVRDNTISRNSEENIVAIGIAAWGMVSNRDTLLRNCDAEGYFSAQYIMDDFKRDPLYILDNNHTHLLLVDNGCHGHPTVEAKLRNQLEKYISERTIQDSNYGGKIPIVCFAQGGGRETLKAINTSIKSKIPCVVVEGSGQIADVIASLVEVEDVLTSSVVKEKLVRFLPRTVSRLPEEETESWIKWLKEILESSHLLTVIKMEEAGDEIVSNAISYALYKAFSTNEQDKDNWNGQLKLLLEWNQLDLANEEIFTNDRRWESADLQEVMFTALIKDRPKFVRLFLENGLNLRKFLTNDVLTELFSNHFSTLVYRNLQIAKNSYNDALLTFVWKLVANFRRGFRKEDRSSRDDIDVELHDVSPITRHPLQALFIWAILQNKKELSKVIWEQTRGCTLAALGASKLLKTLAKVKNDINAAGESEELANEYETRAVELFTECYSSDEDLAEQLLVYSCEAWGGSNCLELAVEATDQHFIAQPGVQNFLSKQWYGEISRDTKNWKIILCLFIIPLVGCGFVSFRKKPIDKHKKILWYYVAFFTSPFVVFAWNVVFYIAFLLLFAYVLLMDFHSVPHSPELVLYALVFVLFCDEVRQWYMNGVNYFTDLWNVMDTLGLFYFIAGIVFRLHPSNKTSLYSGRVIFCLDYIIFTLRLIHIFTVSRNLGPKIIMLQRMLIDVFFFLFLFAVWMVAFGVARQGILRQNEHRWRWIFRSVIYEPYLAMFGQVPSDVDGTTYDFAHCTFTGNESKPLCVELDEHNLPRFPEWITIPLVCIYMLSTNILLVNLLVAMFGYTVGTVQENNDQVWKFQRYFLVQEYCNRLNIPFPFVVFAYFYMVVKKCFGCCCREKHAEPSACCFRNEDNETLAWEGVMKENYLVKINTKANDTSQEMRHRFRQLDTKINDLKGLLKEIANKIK

Compound | inhibition at 0.2 µM [1] | pIC50 | % Inh @ 0.2 (μM) [1]
CCCCN(c1sc2ccccc2c1Br)S(=O)(=O)NC [Compound 554, N-(3-Bromo-benzo[b]thiophen-2-yl)-N-(butyl)-N′-methyl-sulfamide] | 52.3% | – | –
Cc1c(N(Cc2ccc(F)c(C(F)(F)F)c2)S(=O)(=O)c2ccc(C(=O)NO)cc2)sc2ccccc12 [Compound 555, 4-([4-Fluoro-3-trifluoromethyl-benzyl)-(3-methyl-benzo[b]thiophen-2-yl)-sulfamoyl]-N-hydroxy-benzamide] | 102% | 7.66 | –
CCCCN(c1cc2ccccc2s1)S(=O)(=O)c1ccc(C(=O)O)cc1 [Compound 556, N-(Benzo[b]thiophen-2-yl)-N-(butyl)-4-carboxy-benzenesulfonamide] | 99.3% | 7.32 | –
Cc1c(N(Cc2ccc(F)c(C(F)(F)F)c2)S(=O)(=O)c2ccc(C(=O)O)cc2)sc2cc(C(F)(F)F)ccc12 [Compound 557, N-(3-Methyl-6-trifluoromethyl-benzo[b]thiophen-2-yl)-N-(4-fluoro-3-trifluoromethyl-benzyl)-4-carboxy-benzenesulfonamide] | 39.5% | – | –
CCCCN(c1sc2cc(C(F)(F)F)ccc2c1C)S(=O)(=O)c1ccc(C(=O)O)cc1 [Compound 558, N-(3-Methyl-6-trifluoromethyl-benzo[b]thiophen-2-yl)-N-(butyl)-4-carboxy-benzenesulfonamide] | 80.9% | 7.00 | –
CCCCN(c1sc2ccccc2c1Br)S(=O)(=O)c1ccc(N2CCOCC2)cc1 [Compound 559, N-(3-Bromo-benzo[b]thiophen-2-yl)-N-(butyl)-4-morpholine-benzenesulfonamide] | – | 8.49 | 104.59%
CCCCN(c1sc2ccccc2c1Br)S(=O)(=O)c1ccc(N(C)C)cc1 [Compound 560, N-(3-Bromo-benzo[b]thiophen-2-yl)-N-(butyl)-4-dimethylamino-benzenesulfonamide] | 104% | 7.18 | –
CCCCN(c1sc2ccccc2c1Cl)S(=O)(=O)c1ccc(N(C)C)cc1 [Compound 561, N-(3-Chloro-benzo[b]thiophen-2-yl)-N-(butyl)-4-dimethylamino-benzenesulfonamide] | 103% | 7.55 | –
CCCCN(c1sc2ccccc2c1Cl)S(=O)(=O)c1ccc(N2CCOCC2)cc1 [Compound 562, N-(3-Chloro-benzo[b]thiophen-2-yl)-N-(butyl)-4-morpholin-4-yl-benzenesulfonamide] | 103% | 7.48 | –
COC(=O)c1ccc(S(=O)(=O)N(Cc2ccc(F)c(C(F)(F)F)c2)c2sc3ccccc3c2C(C)C)cc1 [Compound 563, N-(4-Fluoro-3-trifluoromethyl-benzyl)-N-(3-isopropyl-benzo[b]thiophen-2-yl)-4-carbomethoxy-benzenesulfonamide] | 94% | 7.31 | –
COC(=O)c1ccc(S(=O)(=O)N(CCC2CC2)c2sc3ccccc3c2C(C)C)cc1 [Compound 564, N-(2-Cyclopropyl-ethyl)-N-(3-isopropyl-benzo[b]thiophen-2-yl)-4-carbomethoxy-benzenesulfonamide] | 57.7% | – | –
COC(=O)c1ccc(S(=O)(=O)N(CCCCC(F)(F)F)c2sc3ccccc3c2C(C)C)cc1 [Compound 565, N-(3-Isopropyl-benzo[b]thiophen-2-yl)-N-(5,5,5-trifluoro-pentyl)-4-carbomethoxy-benzenesulfonamide] | 74.4% | 6.93 | –
CC(C)c1c(N(Cc2ccc(F)c(C(F)(F)F)c2)S(=O)(=O)c2ccc(C(=O)O)cc2)sc2ccccc12 [Compound 566, N-(4-Fluoro-3-trifluoromethyl-benzyl)-N-(3-isopropyl-benzo[b]thiophen-2-yl)-4-carboxy-benzenesulfonamide] | 104% | 8.74 | –
CC(C)c1c(N(CCC2CC2)S(=O)(=O)c2ccc(C(=O)O)cc2)sc2ccccc12 [Compound 567, N-(2-Cyclopropyl-ethyl)-N-(3-isopropyl-benzo[b]thiophen-2-yl)-4-carboxy-benzenesulfonamide] | 104% | 7.99 | –
CC(C)c1c(N(CCCCC(F)(F)F)S(=O)(=O)c2ccc(C(=O)O)cc2)sc2ccccc12 [Compound 568, N-(5,5,5-Trifluoro-pentyl)-N-(3-isopropyl-benzo[b]thiophen-2-yl)-4-carboxy-benzenesulfonamide] | 104% | 8.62 | –
O=S(=O)(c1ccc(-c2nnn[nH]2)cc1)N(CCC1CC1)c1cc2ccccc2s1 [Compound 569, N-(Benzo[b]thiophen-2-yl)-N-(2-cyclopropyl-ethyl)-4-(1H-tetrazol-5-yl)-benzenesulfonamide] | 88% | 7.46 | –
Cc1c(N(CCC2CC2)S(=O)(=O)c2ccc(-c3nnn[nH]3)cc2)sc2ccccc12 [Compound 570, N-(3-Methyl-benzo[b]thiophen-2-yl)-N-(cyclopropyl-ethyl)-4-(1H-tetrazol-5-yl)-benzenesulfonamide] | 101% | 8.18 | –
O=S(=O)(c1ccc(-c2nnn[nH]2)cc1)N(CCC(F)(F)F)c1cc2ccccc2s1 [Compound 571, N-(Benzo[b]thiophen-2-yl)-N-(3,3,3-trifluoro-propyl)-4-(1H-tetrazol-5-yl)-benzenesulfonamide] | 14% | – | –
Cc1c(N(CCC(F)(F)F)S(=O)(=O)c2ccc(-c3nnn[nH]3)cc2)sc2ccccc12 [Compound 572, N-(3-Methyl-benzo[b]thiophen-2-yl)-N-(3,3,3-trifluoro-propyl)-4-(1H-tetrazol-5-yl)-benzenesulfonamide] | 101% | 7.78 | –
N#Cc1cccc(S(=O)(=O)N(CCC(F)(F)F)c2cc3ccccc3s2)c1 [Compound 573, N-(Benzo[b]thiophen-2-yl)-N-(3,3,3-trifluoro-propyl)-3-cyano-benzenesulfonamide] | 28% | – | –
N#Cc1cccc(S(=O)(=O)N(CCCC(F)(F)F)c2cc3ccccc3s2)c1 [Compound 574, N-(Benzo[b]thiophen-2-yl)-N-(4,4,4-trifluoro-butyl)-3-cyano-benzenesulfonamide] | 16% | – | –
N#Cc1cccc(S(=O)(=O)N(CCC2CC2)c2cc3ccccc3s2)c1 [Compound 575, N-(Benzo[b]thiophen-2-yl)-N-(2-cyclopropyl-ethyl)-3-cyano-benzenesulfonamide] | 15% | – | –
O=S(=O)(c1cccc(-c2nnn[nH]2)c1)N(Cc1ccc(F)c(C(F)(F)F)c1)c1sc2ccccc2c1Br [Compound 576, N-(3-Bromo-benzo[b]thiophen-2-yl)-N-(4-fluoro-3-trifluoromethyl-benzyl)-3-(1H-tetrazol-5-yl)-benzenesulfonamide] | 100% | 7.72 | –
O=S1(=O)C(N(CCC2CC2)S(=O)(=O)c2ccccc2)=C(Br)c2ccccc21 [Compound 577, N-(3-Bromo-1,1-dioxo-1H-benzo[b]thiophen-2-yl)-N-(2-cyclopropylethyl)-benzenesulfonamide] | 101% | 8.11 | –
O=S(=O)(c1cccc(-c2nnn[nH]2)c1)N(Cc1ccc(F)c(C(F)(F)F)c1)c1sc2ccccc2c1Cl [Compound 578, N-(3-Chloro-benzo[b]thiophen-2-yl)-N-(4-fluoro-3-trifluoromethyl-benzyl)-3-(1H-tetrazol-5-yl)-benzenesulfonamide] | 91% | 7.57 | –
